Values of other authors as cited in patent US6627614B1, “Sequential therapy comprising a 20(S)-camptothecin and an anthracycline” (priority 2002, dated 2003).

Columns and labels:
[1] = tested on: nontumorigenic and tumorigenic human cells
[2] = tested on: human colon cancer xenografts
[3] = tested on: various types of cancer, including primary cancer and metastasis; details: patients, oral
[4] = administered intravenously, patients
[5] = not given; remark: listed apart in the source

SMILES: CC[C@@]1(O)C(=O)OCc2c1cc1n(c2=O)Cc2cc3ccccc3nc2-1 [20(S)-camptothecin]
- effect on nontumorigenic cells ([1]; nontumorigenic human cells in vitro): cytostatic
- effect on tumorigenic cells ([1]; tumorigenic human cells in vitro): cytotoxic

SMILES: CC[C@@]1(O)C(=O)OCc2c1cc1n(c2=O)Cc2cc3cc4c(cc3nc2-1)OCO4 [10,11 MD, 10,11-Methylendioxy-20(S)-Camptothecin]
- anticancer activity against human colon cancer xenografts [2]: high anticancer activity

SMILES: CC[C@@]1(O)C(=O)OCc2c1cc1n(c2=O)Cc2cc3c(N)cccc3nc2-1 [9AC, 9-Amino-20(S)-Camptothecin]
- anticancer activity against human colon cancer xenografts [2]: high anticancer activity

SMILES: CC[C@@]1(O)C(=O)OCc2c1cc1n(c2=O)Cc2cc3c([N+](=O)[O-])cccc3nc2-1 [9NC, 9-nitrocamptothecin]
- tumors known to regress after exposure [3]: breast carcinoma, ovarian carcinoma, cholangiocarcinoma, monomyelocytic leukemia, and pancreatic carcinoma
- activity against human tumor xenograft models (human tumor xenografts; human tumor xenograft models): high activity
- growth of human tumor xenografts (human tumor xenografts; immunodeficient nude mice): inhibited the growth
- regression of established human tumors (human tumor xenografts; tumors established as xenografts in nude mice): induced regression

SMILES: CC[C@@](O)(C(=O)[O-])c1cc2n(c(=O)c1CO)Cc1cc3ccccc3nc1-2.[Na+] [20(S)-camptothecin Na^+, sodium salt of 20(S)-camptothecin]
- potency in clinical trials [4]: low potency
- toxicity in clinical trials [4]: high toxicity

SMILES: COc1cccc2c1C(=O)c1c(O)c3c(c(O)c1C2=O)C[C@@](O)([C@@H](O)CO)C[C@@H]3O[C@H]1C[C@H](N)[C@H](O)[C@H](C)O1 [doxorubicinol]
- clearance in patients with impaired hepatic function: reduced

SMILES: COc1cccc2c1C(=O)c1c(O)c3c(c(O)c1C2=O)C[C@@](O)(C(=O)CO)C[C@@H]3OC1CC(N)C(O)C(C)O1 (stereo partly shown) [doxorubicin]
- crossing of the blood brain barrier (human, in vivo): does not cross
- clearance in patients with impaired hepatic function: reduced
- dose appearing in the bile (in 5 days): Approximately 40%
- systemic clearance in obese women (obese women with ideal body weight greater than 130%): significantly reduced
- initial distributive half-life (patients, intravenous injection): approximately 5.0 minutes
- children with subclinical cardiac dysfunction ([5]; children, long term follow-up): ≤ 40%
- additional toxicity manifested by ([5]; patients): neutropenia, thrombocytopenia, anemia, confusion and hematuria
- total cumulative dose at which irreversible cardiac toxicity may occur ([5]; patients): ~550 mg/M^2
